Laboratory results from patent US8685970B2, “Quinolines and related analogs as sirtuin modulators” (GlaxoSmithKline, LLC, priority 2008, dated 2014).

These compounds were tested against T1, SIRT1 (Homo sapiens, UniProt Q96EB6) (assay: Mass spectrometry based SIRT1 deacetylation assay (activation)). Details: 10 nM SIRT1, 0.5 μM peptide substrate, 120 μM βNAD+, 25 min at 25° C.
T1 sequence (Q96EB6 1-747): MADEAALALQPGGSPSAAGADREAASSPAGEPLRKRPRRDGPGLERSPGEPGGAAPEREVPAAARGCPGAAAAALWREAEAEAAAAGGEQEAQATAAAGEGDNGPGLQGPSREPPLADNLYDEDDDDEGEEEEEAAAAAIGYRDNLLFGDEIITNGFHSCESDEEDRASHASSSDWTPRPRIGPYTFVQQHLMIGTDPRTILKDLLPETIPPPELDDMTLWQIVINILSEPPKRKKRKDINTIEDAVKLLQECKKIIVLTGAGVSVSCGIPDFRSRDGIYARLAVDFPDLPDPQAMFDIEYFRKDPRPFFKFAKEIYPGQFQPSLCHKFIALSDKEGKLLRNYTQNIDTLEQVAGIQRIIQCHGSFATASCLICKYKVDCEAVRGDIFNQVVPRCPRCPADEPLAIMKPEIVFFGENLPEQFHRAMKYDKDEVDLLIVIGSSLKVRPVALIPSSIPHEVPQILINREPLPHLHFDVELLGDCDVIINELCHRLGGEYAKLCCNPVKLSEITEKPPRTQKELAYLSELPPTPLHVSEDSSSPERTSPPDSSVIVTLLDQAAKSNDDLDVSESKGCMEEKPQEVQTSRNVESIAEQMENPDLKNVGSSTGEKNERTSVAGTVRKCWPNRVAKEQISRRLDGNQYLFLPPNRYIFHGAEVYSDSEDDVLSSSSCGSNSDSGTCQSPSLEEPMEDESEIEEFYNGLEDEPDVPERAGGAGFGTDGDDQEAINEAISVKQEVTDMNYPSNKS
Assay type: biochemical
In short: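 Activation reported as EC1.5, the compound concentration producing 150% of DMSO-control deacetylation, plus maximum fold activation. Readout is mass-spectrometric ratio of deacetylated to acetylated p53-based peptide (0.5 μM) after 25 min, 25 °C, with 120 μM βNAD+ and 10 nM His-tagged human SIRT1, pH 8.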

Row | SMILES | % Fold Act. (percent maximum fold activation) | EC1.5 (concentration of test compound that results in 150% activation of SIRT1)
1 | Cn1ccc(C(=O)Nc2cccc3ccc(-c4cccc(C(F)(F)F)c4)nc23)n1 [Compound 245] | A (Fold activation >200%) | A (EC1.5<1.0 uM)
2 | Cc1cc(C)nc(NC(=O)c2cccc3ccc(-c4cccc(N5CCOCC5)c4)nc23)c1 [Compound 267] | A (Fold activation >200%) | A (EC1.5<1.0 uM)
3 | O=C(Nc1cccc2ccc(-c3ccc(F)nc3)nc12)c1cscn1 [Compound 176] | A (Fold activation >200%) | A (EC1.5<1.0 uM)
4 | O=C(Nc1cnccn1)c1cccc2ccc(-c3cccc(N4CCOCC4)c3)nc12 [Compound 279] | A (Fold activation >200%) | A (EC1.5<1.0 uM)
5 | O=C(Nc1cccc(OC[C@H](O)CO)c1)c1cccc2ccc(-c3cccc(C(F)(F)F)c3)nc12 [Compound 217] | A (Fold activation >200%) | A (EC1.5<1.0 uM)
6 | O=C(Nc1cccc2ccc(-c3ccc(F)c(C(F)(F)F)c3)nc12)c1ccccn1 [Compound 154] | B (Fold Activation <200%) | A (EC1.5<1.0 uM)
7 | O=S(=O)(Nc1cccc2ccc(-c3cccc(OC(F)(F)F)c3)nc12)N1CCCC1 [Compound 112] | – | C (EC1.5>25 uM)
8 | O=C(Nc1ccncn1)c1cccc2ccc(-c3ccnc(C(F)F)c3)nc12 [Compound 308] | A (Fold activation >200%) | A (EC1.5<1.0 uM)
9 | O=C(Nc1ccncn1)c1cccc2ccc(-c3ccccc3C(F)(F)F)nc12 [Compound 87] | A (Fold activation >200%) | A (EC1.5<1.0 uM)
10 | O=C(Nc1ccc(CN2CCCC2)nc1)c1cccc2ccc(-c3cccc(C(F)F)c3)nc12 [Compound 290] | A (Fold activation >200%) | A (EC1.5<1.0 uM)
11 | Cc1nnc(NC(=O)c2cccc3ccc(-c4cccnc4)nc23)o1 [Compound 264] | – | C (EC1.5>25 uM)
12 | O=C(Nc1nccs1)c1cccc2ccc(-c3cccc(OC4CCNCC4)c3)nc12 [Compound 131] | A (Fold activation >200%) | A (EC1.5<1.0 uM)
13 | O=C(Nc1ccc(CN2CCOCC2)cc1)c1cccc2ccc(-c3cccc(C(F)F)c3)nc12 [Compound 303] | A (Fold activation >200%) | A (EC1.5<1.0 uM)
14 | Cn1ccnc1C(=O)Nc1cccc2ccc(-c3cccc(C(F)(F)F)c3)nc12 [Compound 222] | A (Fold activation >200%) | A (EC1.5<1.0 uM)
15 | O=C(Nc1nccs1)c1cccc2ccc(-c3ccccc3C(F)(F)F)nc12 [Compound 84] | A (Fold activation >200%) | B (EC1.5 1-25 uM)
16 | Cc1ccc(-c2ccc3cccc(NC(=O)c4cscn4)c3n2)cc1 [Compound 212] | B (Fold Activation <200%) | B (EC1.5 1-25 uM)
17 | O=C(Nc1ccccn1)c1cccc2ccc(-c3cccc(N4CCOCC4)c3)nc12 [Compound 109] | A (Fold activation >200%) | A (EC1.5<1.0 uM)
18 | O=C(Nc1cccc(CN2CCOCC2)c1)c1cccc2ccc(-c3cccc(C(F)(F)F)c3)nc12 [Compound 255] | A (Fold activation >200%) | A (EC1.5<1.0 uM)

Row | SMILES | % Fold Act. (percent maximum fold activation) | EC1.5 (concentration of test compound that results in 150% activation of SIRT1)
19 | O=C(Nc1nccs1)Nc1cccc2ccc(-c3cccc(OC(F)(F)F)c3)nc12 [Compound 45] | B (Fold Activation <200%) | A (EC1.5<1.0 uM)
20 | O=C(Nc1ccnc(Cl)c1)c1cccc2ccc(-c3cccc(C(F)(F)F)c3)nc12 [Compound 60] | A (Fold activation >200%) | A (EC1.5<1.0 uM)
21 | O=C(Nc1cccc(CN2CCOCC2)n1)c1cccc2ccc(-c3cccnc3)nc12 [Compound 231] | A (Fold activation >200%) | A (EC1.5<1.0 uM)
22 | O=C(Nc1ccncn1)c1cccc2cnc(-c3cccnc3)nc12 [Compound 296] | – | C (EC1.5>25 uM)
23 | O=C(Nc1cccnc1)c1cccc2ccc(-c3cccnc3)nc12 [Compound 183] | – | C (EC1.5>25 uM)
24 | O=C(Nc1ccnc(N2CCOCC2)c1)c1cccc2ccc(-c3cccc(C(F)(F)F)c3)nc12 [Compound 321] | A (Fold activation >200%) | A (EC1.5<1.0 uM)
25 | O=C(Nc1nc(CN2CCOCC2)cs1)c1cccc2ccc(-c3ccccc3C(F)(F)F)nc12 [Compound 274] | A (Fold activation >200%) | A (EC1.5<1.0 uM)
26 | N#Cc1cccc(-c2ccc3cccc(NC(=O)c4cscn4)c3n2)c1 [Compound 80] | – | C (EC1.5>25 uM)
27 | O=C(Nc1ccc(CN2CCCC2)cn1)c1cccc2ccc(-c3cccc(C(F)F)c3)nc12 [Compound 302] | A (Fold activation >200%) | A (EC1.5<1.0 uM)
28 | CN(C)c1cccc(C(=O)Nc2cccc3ccc(-c4cccc(C(F)(F)F)c4)nc23)c1 [Compound 215] | B (Fold Activation <200%) | A (EC1.5<1.0 uM)
29 | Fc1ccc(-c2ccc3cccc(NCc4cccnc4)c3n2)cc1C(F)(F)F [Compound 166] | – | C (EC1.5>25 uM)
30 | Cn1cnc(C(=O)Nc2cccc3ccc(-c4cccc(C(F)(F)F)c4)nc23)c1 [Compound 221] | A (Fold activation >200%) | A (EC1.5<1.0 uM)
31 | O=C(Nc1ccccn1)c1cccc2cnc(-c3cccc(N4CCOCC4)c3)nc12 [Compound 315] | A (Fold activation >200%) | A (EC1.5<1.0 uM)
32 | O=C(NC1CCNCC1)c1cccc2ccc(-c3cccc(C(F)(F)F)c3)nc12 [Compound 71] | A (Fold activation >200%) | B (EC1.5 1-25 uM)
33 | O=C(Nc1cccnn1)c1cccc2ccc(-c3cccc(N4CCOCC4)c3)nc12 [Compound 269] | A (Fold activation >200%) | A (EC1.5<1.0 uM)
34 | O=C(Nc1nccs1)c1cccc2ccc(-c3cccc(C(F)F)c3)nc12 [Compound 247] | A (Fold activation >200%) | A (EC1.5<1.0 uM)
35 | FC(F)(F)Oc1cccc(-c2ccc3cccc(NCc4nccs4)c3n2)c1 [Compound 140] | – | C (EC1.5>25 uM)
36 | Cn1ccc(C(=O)Nc2cccc3ccc(-c4cccnc4)nc23)n1 [Compound 293] | A (Fold activation >200%) | A (EC1.5<1.0 uM)
